From ChEMBL document CHEMBL4392828, “Structural modification of indomethacin toward selective inhibition of COX-2 with a significant increase in van der Waals contributions” (Bioorg Med Chem, 2019) come the findings set out here.

This assay has as its target T1, Prostaglandin G/H synthase 1 (Ovis aries) (UniProt P05979).
T1 sequence (whole entry): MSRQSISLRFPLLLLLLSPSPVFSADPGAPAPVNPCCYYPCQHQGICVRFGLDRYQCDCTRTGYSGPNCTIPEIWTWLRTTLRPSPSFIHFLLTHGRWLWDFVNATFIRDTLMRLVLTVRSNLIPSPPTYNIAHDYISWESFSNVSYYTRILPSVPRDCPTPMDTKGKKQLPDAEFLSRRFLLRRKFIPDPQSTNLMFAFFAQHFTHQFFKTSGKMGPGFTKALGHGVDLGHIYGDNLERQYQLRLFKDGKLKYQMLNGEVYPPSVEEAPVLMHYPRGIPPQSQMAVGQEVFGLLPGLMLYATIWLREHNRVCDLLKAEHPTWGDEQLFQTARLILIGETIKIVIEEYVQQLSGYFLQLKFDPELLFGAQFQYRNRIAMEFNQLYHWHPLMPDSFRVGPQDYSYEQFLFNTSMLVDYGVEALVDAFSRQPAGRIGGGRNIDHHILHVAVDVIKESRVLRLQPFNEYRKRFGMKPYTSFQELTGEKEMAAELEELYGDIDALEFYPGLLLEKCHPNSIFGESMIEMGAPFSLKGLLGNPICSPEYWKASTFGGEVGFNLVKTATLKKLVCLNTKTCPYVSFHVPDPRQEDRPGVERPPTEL
As to the kind of experiment: Inhibition of ovine COX1 assessed as reduction in PGF2alpha production up to 2000 nM using arachidonic acid as substrate incubated for 10 mins by EIA method relative to indomethacin.

Activity calls are given as the source filed them. No cut-off for these calls is given here.

`COc1ccc2c(c1)c(CC(=O)O)c(/C=C/C(F)(F)F)n2C(=O)c1ccc(Cl)cc1`: the inhibition entry was “inactive”.
